Measured values published in patent US10376520B2, “Methods for the treatment of cardiovascular disorders” (Galapagos NV, priority 2015, dated 2019).

System: RA patients
Test: Total cholesterol determination, Study 1 (RA patients with inadequate response to methotrexate, add-on to MTX)
Assay type: in vivo, human
Experimental: Double-blind, placebo-controlled add on study in subjects with moderately to severely active RA who have an inadequate response to methotrexate (MTX) (oral or parenteral).
595 subjects randomized to one of 6 dose regimens of Compound 1 (dosed as a [Compound 1:HCl:3H2O]) (3 dose levels administered either once or twice daily) or placebo on top of each subject's stable dose of MTX.
Compound 1 (dosed as a [Compound 1:HCl:3H2O]) is dosed for twelve weeks once daily (q.d.) (50 mg, 100 mg or 200 mg) or twice daily (b.i.d.) (25 mg, 50 mg or 100 mg); or placebo.
At Week 12, the subjects on placebo who have not achieved 20% improvement in swollen joint count (SJC66) and tender joint count (TJC68) are re-randomized automatically to receive Compound 1 (dosed as a [Compound 1:HCl:3H2O]) either at 100 mg q.d. or 50 mg b.i.d. doses in a blinded fashion; subjects on 50 mg q.d. who have not achieved 20% improvement in SJC66 and TJC68 will be assigned to 100 mg q.d. and subjects on 25 mg b.i.d. that have not achieved a 20% improvement in SJC66 and TJC68 will be assigned to 50 mg b.i.d. Subjects who switch treatment at week 12 are handled as if they discontinued at week 12 for the purpose of statistical analysis, whereas subjects in the other groups will maintain their randomized treatment until Week 24.
This method is based on the determination of Δ^4 cholestenone after enzymatic cleavage of the cholesterol ester by cholesterol esterase, conversion of cholesterol by cholesterol oxidase, and subsequent measurement by the Trinder reaction of the hydrogen peroxide formed (Allain et al., 1974).
Cholesterol esters are cleaved by the action of cholesterol esterase to yield free cholesterol and fatty acids. Cholesterol oxidase then catalyzes the oxidation of cholesterol to cholest-4-en-3-one and hydrogen peroxide. In the presence of peroxidase, the hydrogen peroxide formed effects the oxidative coupling of phenol and 4-aminophenazone to form a red quinone-imine dye. The color intensity of the dye formed is directly proportional to the cholesterol concentration. It is determined by measuring the increase in absorbance.
Human serum and plasma samples cholesterol determination was done on a Roche/Hitachi Cobas c 701/702 system which automatically calculate the analyte concentration of each sample.

## O=C(Nc1nc2cccc(-c3ccc(CN4CCS(=O)(=O)CC4)cc3)n2n1)C1CC1 [Compound 1, cyclopropanecarboxylic acid {5-[4-(1,1-dioxo-thiomorpholin-4-ylmethyl)-phenyl]-[1,2,4]triazolo[1,5-a]pyridin-2yl}-amide]
Continued 25 mg b.i.d (N = 69), week 12
  [total cholesterol] Mean percentage CFB - 24 weeks results: 6.38%
Continued 25 mg b.i.d (N = 69), week 16
  [total cholesterol] Mean percentage CFB - 24 weeks results: 5.51%
Continued 25 mg b.i.d (N = 69), week 20
  [total cholesterol] Mean percentage CFB - 24 weeks results: 6.95%
Continued 25 mg b.i.d (N = 69), week 24
  [total cholesterol] Mean percentage CFB - 24 weeks results: 6.53%
Continued 50 mg b.i.d. (N = 85), week 1
  [total cholesterol] Mean percentage CFB - 24 weeks results: 3.39%
Continued 50 mg b.i.d. (N = 85), week 2
  [total cholesterol] Mean percentage CFB - 24 weeks results: 3.87%
Continued 50 mg b.i.d. (N = 85), week 4
  [total cholesterol] Mean percentage CFB - 24 weeks results: 7.04%
Continued 50 mg b.i.d. (N = 85), week 8
  [total cholesterol] Mean percentage CFB - 24 weeks results: 5.63%
Continued 50 mg b.i.d. (N = 85), week 12
  [total cholesterol] Mean percentage CFB - 24 weeks results: 5.67%
Continued 50 mg b.i.d. (N = 85), week 16
  [total cholesterol] Mean percentage CFB - 24 weeks results: 6.23%
Continued 50 mg b.i.d. (N = 85), week 20
  [total cholesterol] Mean percentage CFB - 24 weeks results: 7.91%
Continued 50 mg b.i.d. (N = 85), week 24
  [total cholesterol] Mean percentage CFB - 24 weeks results: 7.97%
Continued 50 mg q.d. (N = 63), week 1
  [total cholesterol] Mean percentage CFB - 24 weeks results: 0.77%
Continued 50 mg q.d. (N = 63), week 2
  [total cholesterol] Mean percentage CFB - 24 weeks results: −0.22%
Continued 50 mg q.d. (N = 63), week 4
  [total cholesterol] Mean percentage CFB - 24 weeks results: 1.08%
Continued 50 mg q.d. (N = 63), week 8
  [total cholesterol] Mean percentage CFB - 24 weeks results: 3.49%
Continued 50 mg q.d. (N = 63), week 12
  [total cholesterol] Mean percentage CFB - 24 weeks results: 5.58%
Continued 50 mg q.d. (N = 63), week 16
  [total cholesterol] Mean percentage CFB - 24 weeks results: 5.15%
Continued 50 mg q.d. (N = 63), week 20
  [total cholesterol] Mean percentage CFB - 24 weeks results: 4.68%
Continued 50 mg q.d. (N = 63), week 24
  [total cholesterol] Mean percentage CFB - 24 weeks results: 6.75%
Continued 100 mg b.i.d. (N = 84), week 1
  [total cholesterol] Mean percentage CFB - 24 weeks results: 6.85%
Continued 100 mg b.i.d. (N = 84), week 2
  [total cholesterol] Mean percentage CFB - 24 weeks results: 8.38%
Continued 100 mg b.i.d. (N = 84), week 4
  [total cholesterol] Mean percentage CFB - 24 weeks results: 9.86%
Continued 100 mg b.i.d. (N = 84), week 8
  [total cholesterol] Mean percentage CFB - 24 weeks results: 14.79%
Continued 100 mg b.i.d. (N = 84), week 12
  [total cholesterol] Mean percentage CFB - 24 weeks results: 14.98%
Continued 100 mg b.i.d. (N = 84), week 16
  [total cholesterol] Mean percentage CFB - 24 weeks results: 12.82%
Continued 100 mg b.i.d. (N = 84), week 20
  [total cholesterol] Mean percentage CFB - 24 weeks results: 12.71%
Continued 100 mg b.i.d. (N = 84), week 24
  [total cholesterol] Mean percentage CFB - 24 weeks results: 15.39%
Continued 100 mg q.d. (N = 85), week 1
  [total cholesterol] Mean percentage CFB - 24 weeks results: 3.65%
Continued 100 mg q.d. (N = 85), week 2
  [total cholesterol] Mean percentage CFB - 24 weeks results: 2.32%
Continued 100 mg q.d. (N = 85), week 4
  [total cholesterol] Mean percentage CFB - 24 weeks results: 4.86%
Continued 100 mg q.d. (N = 85), week 8
  [total cholesterol] Mean percentage CFB - 24 weeks results: 3.79%
Continued 100 mg q.d. (N = 85), week 12
  [total cholesterol] Mean percentage CFB - 24 weeks results: 5.39%
Continued 100 mg q.d. (N = 85), week 16
  [total cholesterol] Mean percentage CFB - 24 weeks results: 1.87%
Continued 100 mg q.d. (N = 85), week 20
  [total cholesterol] Mean percentage CFB - 24 weeks results: 3.28%
Continued 100 mg q.d. (N = 85), week 24
  [total cholesterol] Mean percentage CFB - 24 weeks results: 5.05%
Continued 200 mg q.d. (N = 86), week 1
  [total cholesterol] Mean percentage CFB - 24 weeks results: 5.53%
Continued 200 mg q.d. (N = 86), week 2
  [total cholesterol] Mean percentage CFB - 24 weeks results: 9.86%
Continued 200 mg q.d. (N = 86), week 4
  [total cholesterol] Mean percentage CFB - 24 weeks results: 8.99%
Continued 200 mg q.d. (N = 86), week 8
  [total cholesterol] Mean percentage CFB - 24 weeks results: 6.72%
Continued 200 mg q.d. (N = 86), week 12
  [total cholesterol] Mean percentage CFB - 24 weeks results: 10.16%
Continued 200 mg q.d. (N = 86), week 16
  [total cholesterol] Mean percentage CFB - 24 weeks results: 9.19%
Continued 200 mg q.d. (N = 86), week 20
  [total cholesterol] Mean percentage CFB - 24 weeks results: 8.00%
Continued 200 mg q.d. (N = 86), week 24
  [total cholesterol] Mean percentage CFB - 24 weeks results: 9.94%
From 25 mg b.i.d. to 50 mg b.i.d at 12 weeks (N = 17), week 1
  [total cholesterol] Mean percentage CFB - 24 weeks results: 0.55%
From 25 mg b.i.d. to 50 mg b.i.d at 12 weeks (N = 17), week 2
  [total cholesterol] Mean percentage CFB - 24 weeks results: 2.37%
From 25 mg b.i.d. to 50 mg b.i.d at 12 weeks (N = 17), week 4
  [total cholesterol] Mean percentage CFB - 24 weeks results: −2.60%
From 25 mg b.i.d. to 50 mg b.i.d at 12 weeks (N = 17), week 8
  [total cholesterol] Mean percentage CFB - 24 weeks results: −2.81%
From 25 mg b.i.d. to 50 mg b.i.d at 12 weeks (N = 17), week 12
  [total cholesterol] Mean percentage CFB - 24 weeks results: 0.30%
From 25 mg b.i.d. to 50 mg b.i.d at 12 weeks (N = 17), week 16
  [total cholesterol] Mean percentage CFB - 24 weeks results: 4.23%
From 25 mg b.i.d. to 50 mg b.i.d at 12 weeks (N = 17), week 24
  [total cholesterol] Mean percentage CFB - 24 weeks results: 2.66%
From 50 mg q.d. to 100 mg q.d. at 12 weeks (N = 19), week 1
  [total cholesterol] Mean percentage CFB - 24 weeks results: 1.24%
From 50 mg q.d. to 100 mg q.d. at 12 weeks (N = 19), week 2
  [total cholesterol] Mean percentage CFB - 24 weeks results: 4.36%
From 50 mg q.d. to 100 mg q.d. at 12 weeks (N = 19), week 4
  [total cholesterol] Mean percentage CFB - 24 weeks results: 1.67%
From 50 mg q.d. to 100 mg q.d. at 12 weeks (N = 19), week 8
  [total cholesterol] Mean percentage CFB - 24 weeks results: 2.29%
From 50 mg q.d. to 100 mg q.d. at 12 weeks (N = 19), week 12
  [total cholesterol] Mean percentage CFB - 24 weeks results: 2.39%
From 50 mg q.d. to 100 mg q.d. at 12 weeks (N = 19), week 16
  [total cholesterol] Mean percentage CFB - 24 weeks results: 7.55%
From 50 mg q.d. to 100 mg q.d. at 12 weeks (N = 19), week 20
  [total cholesterol] Mean percentage CFB - 24 weeks results: 6.69%
From 50 mg q.d. to 100 mg q.d. at 12 weeks (N = 19), week 24
  [total cholesterol] Mean percentage CFB - 24 weeks results: 5.15%
Placebo switched to 50 mg b.i.d at week 12 (N = 15), week 16
  [total cholesterol] Mean percentage CFB - 24 weeks results: 3.97%
Placebo switched to 50 mg b.i.d at week 12 (N = 15), week 20
  [total cholesterol] Mean percentage CFB - 24 weeks results: 5.80%
Placebo switched to 50 mg b.i.d at week 12 (N = 15), week 24
  [total cholesterol] Mean percentage CFB - 24 weeks results: 3.22%
